Results published in the CheMixHub viscosity set.

Test: xn = mol fraction of the nth substance listed

CCCCC + CO
Conditions | viscosity [mPa·s]
293.15 K, 101 kPa, x1 = 0.0471 | 0.5884
293.15 K, 101 kPa, x1 = 0.0999 | 0.5839
293.15 K, 101 kPa, x1 = 0.1602 | 0.5769
293.15 K, 101 kPa, x1 = 0.2288 | 0.5663
293.15 K, 101 kPa, x1 = 0.3074 | 0.5509
293.15 K, 101 kPa, x1 = 0.3999 | 0.5282
293.15 K, 101 kPa, x1 = 0.5084 | 0.4953
293.15 K, 101 kPa, x1 = 0.6397 | 0.4464
293.15 K, 101 kPa, x1 = 0.7999 | 0.3733
298.15 K, 101.33 kPa, x2 = 0.0464 | 0.245
298.15 K, 101.33 kPa, x2 = 0.0696 | 0.249
298.15 K, 101.33 kPa, x2 = 0.1597 | 0.265
298.15 K, 101.33 kPa, x2 = 0.2228 | 0.279
298.15 K, 101.33 kPa, x2 = 0.4412 | 0.327
298.15 K, 101.33 kPa, x2 = 0.6294 | 0.384
298.15 K, 101.33 kPa, x2 = 0.741 | 0.424
298.15 K, 101.33 kPa, x2 = 0.7958 | 0.445
298.15 K, 101.33 kPa, x2 = 0.9419 | 0.518
298.15 K, 101.33 kPa, x2 = 0.9734 | 0.537
303.15 K, 101 kPa, x1 = 0.0471 | 0.5267
303.15 K, 101 kPa, x1 = 0.0999 | 0.5186
303.15 K, 101 kPa, x1 = 0.1602 | 0.5081
303.15 K, 101 kPa, x1 = 0.2288 | 0.4945
303.15 K, 101 kPa, x1 = 0.3074 | 0.4767
303.15 K, 101 kPa, x1 = 0.3999 | 0.4529
303.15 K, 101 kPa, x1 = 0.5084 | 0.421
303.15 K, 101 kPa, x1 = 0.6397 | 0.3765
303.15 K, 101 kPa, x1 = 0.7999 | 0.3135
313.15 K, 101 kPa, x1 = 0.0471 | 0.5012
313.15 K, 101 kPa, x1 = 0.0999 | 0.4866
313.15 K, 101 kPa, x1 = 0.1602 | 0.4694
313.15 K, 101 kPa, x1 = 0.2288 | 0.4492
313.15 K, 101 kPa, x1 = 0.3074 | 0.4254
313.15 K, 101 kPa, x1 = 0.3999 | 0.3963
313.15 K, 101 kPa, x1 = 0.5084 | 0.3607
313.15 K, 101 kPa, x1 = 0.6397 | 0.3156
313.15 K, 101 kPa, x1 = 0.7999 | 0.2574

CCCCC + CC(C)O
298.15 K, 101 kPa
Conditions | viscosity [mPa·s]
x2 = 0.1128 | 0.262
x2 = 0.2204 | 0.281
x2 = 0.3273 | 0.323
x2 = 0.4232 | 0.385
x2 = 0.516 | 0.466
x2 = 0.6004 | 0.577
x2 = 0.6858 | 0.71
x2 = 0.7699 | 0.966
x2 = 0.8524 | 1.272
x2 = 0.9438 | 1.702

CCCCCCCO + CO
viscosity [mPa·s], 101 kPa
Conditions | 298.15 K | 308.15 K | 318.15 K
x2 = 0.05 | 5.378 | 3.995 | 2.975
x2 = 0.1 | 4.999 | 3.737 | 2.809
x2 = 0.15 | 4.634 | 3.487 | 2.647
x2 = 0.2 | 4.284 | 3.246 | 2.488
x2 = 0.25 | 3.949 | 3.013 | 2.332
x2 = 0.3 | 3.627 | 2.788 | 2.179
x2 = 0.35 | 3.319 | 2.571 | 2.028
x2 = 0.4 | 3.025 | 2.362 | 1.88
x2 = 0.45 | 2.744 | 2.161 | 1.735
x2 = 0.5 | 2.475 | 1.967 | 1.592
x2 = 0.55 | 2.22 | 1.78 | 1.453
x2 = 0.6 | 1.978 | 1.602 | 1.317
x2 = 0.65 | 1.75 | 1.431 | 1.184
x2 = 0.7 | 1.534 | 1.267 | 1.056
x2 = 0.75 | 1.333 | 1.113 | 0.9327
x2 = 0.8 | 1.145 | 0.9661 | 0.815
x2 = 0.85 | 0.9716 | 0.8284 | 0.7037
x2 = 0.9 | 0.8131 | 0.6998 | 0.5997
x2 = 0.95 | 0.6699 | 0.5807 | 0.504

NS(=O)(=O)O + CC(=O)N(C)C
298 K, 101.33 kPa
Conditions | viscosity [mPa·s]
x1 = 0.02772 | 1.19
x1 = 0.05584 | 1.637
x1 = 0.08283 | 2.268
x1 = 0.1075 | 3.241
x1 = 0.33 | 1.147
x1 = 0.67 | 1.499

CCC(N)=O + c1ccncc1
298.15 K, 101 kPa
Conditions | viscosity [mPa·s]
x1 = 0.0852 | 1.047
x1 = 0.1462 | 1.208
x1 = 0.2521 | 1.615

CS(C)=O + CN(C)C=O
Conditions | viscosity [mPa·s]
298 K, 101.3 kPa, x1 = 0.1668 | 0.924
298 K, 101.3 kPa, x1 = 0.3195 | 1.036
298 K, 101.3 kPa, x1 = 0.5201 | 1.242
298 K, 101.3 kPa, x1 = 0.6689 | 1.474
298 K, 101.3 kPa, x1 = 0.8514 | 1.785
298.15 K, 101 kPa, x1 = 0.1077 | 0.89
298.15 K, 101 kPa, x1 = 0.2134 | 0.99
298.15 K, 101 kPa, x1 = 0.4199 | 1.11
298.15 K, 101 kPa, x1 = 0.5205 | 1.24
298.15 K, 101 kPa, x1 = 0.6195 | 1.37
298.15 K, 101 kPa, x1 = 0.8128 | 1.61
298.15 K, 101 kPa, x1 = 0.9071 | 1.78
303.15 K, 101 kPa, x2 = 0.1 | 1.617
303.15 K, 101 kPa, x2 = 0.2 | 1.466
303.15 K, 101 kPa, x2 = 0.3 | 1.331
303.15 K, 101 kPa, x2 = 0.4001 | 1.228
303.15 K, 101 kPa, x2 = 0.5002 | 1.109
303.15 K, 101 kPa, x2 = 0.6001 | 1.025
303.15 K, 101 kPa, x2 = 0.7001 | 0.952
303.15 K, 101 kPa, x2 = 0.8 | 0.877
303.15 K, 101 kPa, x2 = 0.9 | 0.814
313.15 K, 101 kPa, x2 = 0.1 | 1.365
313.15 K, 101 kPa, x2 = 0.2 | 1.248
313.15 K, 101 kPa, x2 = 0.3 | 1.141
313.15 K, 101 kPa, x2 = 0.4001 | 1.057
313.15 K, 101 kPa, x2 = 0.5002 | 0.969
313.15 K, 101 kPa, x2 = 0.6001 | 0.9
313.15 K, 101 kPa, x2 = 0.7001 | 0.839
313.15 K, 101 kPa, x2 = 0.8 | 0.775
313.15 K, 101 kPa, x2 = 0.9 | 0.724
318 K, 101.3 kPa, x1 = 0.159 | 0.7095
318 K, 101.3 kPa, x1 = 0.3184 | 0.7948
318 K, 101.3 kPa, x1 = 0.521 | 0.9101
318 K, 101.3 kPa, x1 = 0.6667 | 1.032
318 K, 101.3 kPa, x1 = 0.8614 | 1.226
323.15 K, 101 kPa, x2 = 0.1 | 1.17
323.15 K, 101 kPa, x2 = 0.2 | 1.075
323.15 K, 101 kPa, x2 = 0.3 | 0.99
323.15 K, 101 kPa, x2 = 0.4001 | 0.922
323.15 K, 101 kPa, x2 = 0.5002 | 0.85
323.15 K, 101 kPa, x2 = 0.6001 | 0.792
323.15 K, 101 kPa, x2 = 0.7001 | 0.74
323.15 K, 101 kPa, x2 = 0.8 | 0.69
323.15 K, 101 kPa, x2 = 0.9 | 0.647

CCCCCCCO + CCCCCCO
viscosity [mPa·s], 101.8 kPa
Conditions | x2 = 0.1128 | x2 = 0.3611 | x2 = 0.5306 | x2 = 0.6915 | x2 = 0.9117
298.15 K | 5.786 | 5.339 | 5.173 | 4.875 | 4.5
308.15 K | 4.235 | 3.946 | 3.829 | 3.625 | 3.347
318.15 K | 3.16 | 2.963 | 2.879 | 2.737 | 2.535

C[N+](C)(C)CCC[n+]1ccccc1.N#C[N-]C#N.N#C[N-]C#N + CO
viscosity [mPa·s], 100 kPa
Conditions | 293.15 K | 303.15 K | 313.15 K
x1 = 0.2001 | – | 11.45 | –
x1 = 0.8995 | 952.8 | – | 198.5

CCN(CC)CCO + CC(=O)N(C)C
viscosity [mPa·s], 101 kPa
Conditions | 298.15 K | 308.15 K | 318.15 K
x2 = 0.0505 | 2.874 | 2.164 | 1.669
x2 = 0.0999 | 2.683 | 1.999 | 1.517
x2 = 0.1499 | 2.512 | 1.849 | 1.374
x2 = 0.2004 | 2.356 | 1.715 | 1.254
x2 = 0.2997 | 2.089 | 1.502 | 1.08
x2 = 0.3997 | 1.871 | 1.314 | 0.956
x2 = 0.5008 | 1.677 | 1.207 | 0.861
x2 = 0.5998 | 1.51 | 1.103 | 0.792
x2 = 0.6995 | 1.357 | 1.015 | 0.747
x2 = 0.7989 | 1.2 | 0.932 | 0.721
x2 = 0.8997 | 1.046 | 0.854 | 0.7

CS(C)=O + CCCCO
viscosity [mPa·s]
Conditions | 298.15 K | 303.15 K
101 kPa, x1 = 0.09862 | – | 1.847
101 kPa, x1 = 0.1941 | – | 1.698
101 kPa, x1 = 0.2035 | – | 1.685
101 kPa, x1 = 0.3043 | – | 1.581
101 kPa, x1 = 0.3691 | – | 1.528
101 kPa, x1 = 0.3883 | – | 1.55
101 kPa, x1 = 0.4941 | – | 1.534
101 kPa, x1 = 0.5276 | – | 1.497
101 kPa, x1 = 0.5875 | – | 1.564
101 kPa, x1 = 0.6718 | – | 1.506
101 kPa, x1 = 0.6844 | – | 1.605
101 kPa, x1 = 0.803 | – | 1.636
101 kPa, x1 = 0.8037 | – | 1.543
101 kPa, x1 = 0.9005 | – | 1.682
101 kPa, x1 = 0.9297 | – | 1.672
101.3 kPa, x1 = 0.0944 | 2.225 | 1.97
101.3 kPa, x1 = 0.192 | 2.017 | 1.848
101.3 kPa, x1 = 0.2893 | 1.88 | 1.671
101.3 kPa, x1 = 0.3876 | 1.78 | 1.604
101.3 kPa, x1 = 0.4688 | 1.773 | 1.59
101.3 kPa, x1 = 0.5874 | 1.77 | 1.599
101.3 kPa, x1 = 0.6887 | 1.796 | 1.625
101.3 kPa, x1 = 0.7915 | 1.859 | 1.668
101.3 kPa, x1 = 0.8839 | 1.905 | 1.723
